Laboratory results taken from patent US20200255714A1, “HYDROFLUOROEPOXIDE CONTAINING COMPOSITIONS AND METHODS FOR USING SAME” (3M INNOVATIVE PROPERTIES COMPANY, priority 2017, published 2020).

How the values were obtained:
Format in all cases: physicochemical
[1] = Thermal stability under air sparging at elevated temperature (GC analysis); settings: 72 hour stir at 215° C.-220° C., sparging by air 0.4 L/min
Experimental: To a 3-neck 250 mL round bottom flask equipped with a water-cooled condenser, temperature probe, magnetic stir bar, and a ⅛ inch FEP tube connected to 10 micron steel frit was charged 2,3-bis(3,3,4,4,5,5,5-heptafluoro-2,2-bis(trifluoromethyl)pentyl) oxirane (70.4 g, 99 mmol). Sparging by air through the 10 micron steel frit at a rate of 0.4 L/min commenced and the internal temperature was slowly raised to 220° C. with stirring. After a 72 hour stir with the temperature held between 215° C.-220° C., the material was allowed to cool to room temperature.

[2] = Chemical stability with absorbents at 65° C. (GC-FID); settings: 16 hours, initial starting material 99.6
Experimental: The chemical stability was evaluated by charging a weighed amount of Preparatory Example PE1 into glass vials and then adding a weighed amount of absorbent. The samples were stirred with heating at 65° C. for 16 hours and then analyzed by GC-FID to determine whether any breakdown products were formed and whether the level of purity changed.

[3] = Vapor pressure by stirred-flask ebuilliometer method (ASTM E 1719-97)
Experimental: Vapor Pressure was measured using the stirred-flask ebuilliometer method described in ASTM E 1719-97 “Vapor Pressure Measurement by Ebuilliometry.” This method is also referred to as “Dynamic Reflux.” The method uses a 50-mL glass round-bottom flask. Vacuum was measured and controlled using a J-KEM vacuum controller (J-KEM Scientific, Saint Louis, Mo., US). The pressure transducer was calibrated on the day of measurement by comparison with full vacuum and with an electronic barometer. The procedure was to begin slowly heating the material, then vacuum was applied until boiling occurred and a steady drop wise reflux rate was established. Pot temperature and pressure reading were recorded, then the vacuum controller was set for a higher absolute pressure and the material was heated further until a new reflux point was established. The pressure level was raised in increments until the vapor pressure curve was obtained up to the atmospheric boiling point. The boiling point of PE1 at 760 mmHg was 238.3° C.

[4] = Kinematic viscosity by Ubbelohde capillary viscometer
Experimental: Kinematic Viscosity was measured using glass SCHOTT Ubbelohde capillary viscometers (Xylem, Inc., Germany). The viscometers were timed using a SCHOTT AVS 350 viscosity timer. For a temperature of 10° C., a Lawler temperature control bath was used (Lawler Manufacturing Corp., Edison, N.J., US). The viscometer measurement stand and glass viscometer were immersed in a temperature-controlled liquid bath filled with NOVEC 7500 (3M Company, Saint Paul, Minn., US) as the bath fluid. The Lawler temperature bath was fitted with a copper tubing coil for liquid nitrogen cooling with fine temperature control provided by the bath's electronic temperature control heater. The fluid was mechanically stirred to provide uniform temperature in the bath. The bath controlled temperature to within ±0.1° C., as measured by the built-in resistance temperature detector (RTD) temperature sensor. The sample liquid was added to the viscometer between the two fill lines etched on the viscometer. The AVS-350 automatically pumped the sample fluid above the upper timing mark, then released the fluid and measured the efflux times between the upper and lower timing marks. The fluid meniscus was detected by optical sensors as it passed each timing mark. The sample was drawn up and measured repeatedly, averaging multiple measurements. The glass viscometers were calibrated using Canon certified kinematic viscosity standard fluids to obtain a calibration constant (centistokes per second) for each viscometer. The measured kinematic viscosity (centistokes), was calculated as the average efflux time (seconds) times the constant (centistokes/second) for the viscometer used.

## FC(F)(F)C(F)(F)C(F)(F)C(CC1OC1CC(C(F)(F)F)(C(F)(F)F)C(F)(F)C(F)(F)C(F)(F)F)(C(F)(F)F)C(F)(F)F (stereo not shown) [PE1, 2,3-bis(3,3,4,4,5,5,5-heptafluoro-2,2-bis(trifluoromethyl)pentyl)oxirane]
[1]
  content of starting material in final mixture (GC analysis): approximately 99.4%
  decomposition (GC analysis): no decomposition
[2]; 4 Å molecular sieves
  GC-FID purity (%): 99.6%
[2]; Activated carbon
  GC-FID purity (%): 98.4%
[2]; Basic alumina
  GC-FID purity (%): 99.7%
[2]; Potassium carbonate
  GC-FID purity (%): 99.6%
[2]; Silica gel
  GC-FID purity (%): 99.6%
[3]; 20 ° C.
  Vapor pressure: 0.026 mmHg
[3]; 55 ° C.
  Vapor pressure: 0.35 mmHg
[3]; 78.6 ° C.
  Vapor pressure: 1.5 mmHg
[3]; 170.7 ° C.
  Vapor pressure: 96.6 mmHg
[3]; 204.3 ° C.
  Vapor pressure: 296.9 mmHg
[3]; 214.7 ° C.
  Vapor pressure: 397.1 mmHg
[3]; 237.7 ° C.
  Vapor pressure: 731.3 mmHg
[3]; at 760 mmHg
  boiling point: 238.3 °C
[4]; 10.0 ° C.
  Kinematic Viscosity: 146.42 cSt
[4]; 25.0 ° C.
  Kinematic Viscosity: 36.22 cSt
[4]; 30.0 ° C.
  Kinematic Viscosity: 25.87 cSt
[4]; 40.0 ° C.
  Kinematic Viscosity: 14.49 cSt
